# Assay results published in US10294202B2, “Pyrrolidinones as herbicides” (FMC Corporation, priority 2013, dated 2019).
# Legend:
# waterhemp = assay: Test C pre-/postemergence herbicide test; type: in vivo, Amaranthus rudis
# Outline: (§1)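 Response scores range from 0, meaning no effect, to 100, meaning complete control, assigned visually by comparison with controls roughly two weeks (13 to 15 days) after spraying. Applications were made preemergence to seeded loam–sand soil and postemergence to 1- to 4-leaf plants.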
# oilseed rape = assay: Test C pre-/postemergence herbicide test; type: in vivo, Brassica napus
# Outline: as §1
# giant foxtail = assay: Test A pre-/postemergence herbicide test; type: in vivo, Setaria faberii
# Outline: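 Scoring was visual, relative to untreated controls, on a 0–100 scale after about 10 greenhouse days. Preemergence treatment used a directed soil spray over seeded loam/sand; postemergence treatment targeted one- to two-leaf plants of 2–10 cm.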
# rice = assay: Test B flooded paddy test; type: in vivo, Oryza sativa; conditions: 500 g ai/ha, Flood; scale of 0 to 100 where 0 is no effect and 100 is complete control
# Outline: (§2)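 Treatment was made at the 2-leaf stage by dosing the standing floodwater, kept 3 cm above soil level for the whole test. Greenhouse exposure lasted 13 to 15 days. Response is a visual percent rating relative to controls, where a dash indicates no test result.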
# blackgrass = assay: Test C pre-/postemergence herbicide test; type: in vivo, Alopecurus myosuroides
# Outline: as §1
# velvetleaf = assay: Test C pre-/postemergence herbicide test; type: in vivo, Abutilon theophrasti
# Outline: as §1
# barnyardgrass = assay: Test B flooded paddy test; type: in vivo, Echinochloa crus-galli; conditions: 500 g ai/ha, Flood; scale of 0 to 100 where 0 is no effect and 100 is complete control
# Outline: as §2
# ducksalad = assay: Test B flooded paddy test; type: in vivo, Heteranthera limosa; conditions: 500 g ai/ha, Flood; scale of 0 to 100 where 0 is no effect and 100 is complete control
# Outline: as §2
# sedge, umbrella = assay: Test B flooded paddy test; type: in vivo, Cyperus difformis; conditions: 500 g ai/ha, Flood; scale of 0 to 100 where 0 is no effect and 100 is complete control
# Outline: as §2
# oat, wild = assay: Test C pre-/postemergence herbicide test; type: in vivo, Avena fatua; conditions: Postemergence
# Outline: as §1
# ragweed = assay: Test C pre-/postemergence herbicide test; type: in vivo, Ambrosia elatior
# Outline: as §1
# pigweed = assay: Test C pre-/postemergence herbicide test; type: in vivo, Amaranthus retroflexus
# Outline: as §1
# nutsedge, yellow = assay: Test C pre-/postemergence herbicide test; type: in vivo, Cyperus esculentus
# Outline: as §1
# [1] = Postemergence, 16 g ai/ha, scale 0 to 100 (0 no effect, 100 complete control)
# [2] = Postemergence, 31 g ai/ha, scale 0 to 100 (0 no effect, 100 complete control)
# [3] = Postemergence, 62 g ai/ha, scale 0 (no effect) to 100 (complete control)
# [4] = Postemergence, 125 g ai/ha, scale 0 to 100 (0 no effect, 100 complete control)
# [5] = Preemergence, 31 g ai/ha, scale 0 to 100, 0 is no effect and 100 is complete control
# [6] = Preemergence, 62 g ai/ha, scale 0 to 100 (0 no effect, 100 complete control)
# [7] = Preemergence, 125 g ai/ha, scale 0 to 100 (0 no effect, 100 complete control)
# [8] = Preemergence, 16 g ai/ha, scale 0 to 100
# [9] = Postemergence, 125 g ai/ha, visual rating on 0 to 100 scale (0 no effect, 100 complete control), approx. 10 days
# [10] = Postemergence, 500 g ai/ha, 0 to 100 scale (0 no effect, 100 complete control)
# [11] = Preemergence, 125 g ai/ha, 0 to 100 scale where 0 is no effect and 100 is complete control
# [12] = Preemergence, 500 g ai/ha, visual rating on 0 to 100 scale (0 no effect, 100 complete control)
# [13] = 31 g ai/ha, scale 0 to 100 (0 no effect, 100 complete control)
# [14] = 62 g ai/ha, scale 0 (no effect) to 100 (complete control)
# [15] = 125 g ai/ha, scale 0 to 100 (0 no effect, 100 complete control)
# [16] = Postemergence, 250 g ai/ha, scale 0 to 100 (0 no effect, 100 complete control)
# [17] = Preemergence, 125 g ai/ha, scale 0 to 100
smiles,measurement,setting,value
CN1CC(c2ccc(C(F)(F)F)cc2)C(C(=O)Nc2ccccc2F)C1=O (stereo not shown) [Compound 304],"Plant response rating, Waterhemp",waterhemp; [1],40
same,"Plant response rating, Waterhemp",waterhemp; [2],50
same,"Plant response rating, Waterhemp",waterhemp; [3],65
same,"Plant response rating, Waterhemp",waterhemp; [4],80
same,Waterhemp plant response rating,waterhemp; [5],75
same,Waterhemp plant response rating,waterhemp; [6],80
same,"Plant response rating, Waterhemp",waterhemp; [7],85
same,"Plant response rating, Waterhemp",waterhemp; [8],70
same,"Plant response rating, Oilseed Rape",oilseed rape; [1],0
same,"Plant response rating, Oilseed Rape",oilseed rape; [2],0
same,"Plant response rating, Oilseed Rape",oilseed rape; [3],0
same,"Plant response rating, Oilseed Rape",oilseed rape; [4],0
same,Oilseed Rape plant response rating,oilseed rape; [5],50
same,Oilseed Rape plant response rating,oilseed rape; [6],55
same,"Plant response rating, Oilseed Rape",oilseed rape; [7],55
same,"Plant response rating, Oilseed Rape",oilseed rape; [8],30
same,"Plant response rating, Foxtail, Giant",giant foxtail; [9],80
same,"Plant response rating, Foxtail, Giant",giant foxtail; [10],80
same,"Plant response rating, Foxtail, Giant",giant foxtail; [11],90
same,"Foxtail, Giant plant response rating",giant foxtail; [12],90
same,"Plant response rating, Rice",rice,35
same,"Plant response rating, Blackgrass",blackgrass; [1],0
same,"Plant response rating, Blackgrass",blackgrass; [2],0
same,"Plant response rating, Blackgrass",blackgrass; [3],0
same,"Plant response rating, Blackgrass",blackgrass; [4],0
same,Blackgrass plant response rating,blackgrass; [5],35
same,Blackgrass plant response rating,blackgrass; [6],60
same,"Plant response rating, Blackgrass",blackgrass; [7],70
same,"Plant response rating, Blackgrass",blackgrass; [8],30
same,"Plant response rating, Velvetleaf",velvetleaf; [1],0
same,"Plant response rating, Velvetleaf",velvetleaf; [2],5
same,"Plant response rating, Velvetleaf",velvetleaf; [3],15
same,"Plant response rating, Velvetleaf",velvetleaf; [4],15
same,Velvetleaf plant response rating,velvetleaf; [5],20
same,Velvetleaf plant response rating,velvetleaf; [6],35
same,"Plant response rating, Velvetleaf",velvetleaf; [7],50
same,"Plant response rating, Velvetleaf",velvetleaf; [8],0
same,"Plant response rating, Barnyardgrass",barnyardgrass,80
same,"Plant response rating, Ducksalad",ducksalad,100
same,"Plant response rating, Sedge, Umbrella","sedge, umbrella",0
same,"Plant response rating, Oat, Wild","oat, wild; 16 g ai/ha, scale 0 to 100 (0 no effect, 100 complete control)",0
same,"Plant response rating, Oat, Wild","oat, wild; [13]",0
same,"Plant response rating, Oat, Wild","oat, wild; [14]",0
same,"Plant response rating, Oat, Wild","oat, wild; [15]",0
same,"Plant response rating, Ragweed",ragweed; [1],0
same,"Plant response rating, Ragweed",ragweed; [2],0
same,"Plant response rating, Ragweed",ragweed; [3],0
same,"Plant response rating, Ragweed",ragweed; [4],35
same,Ragweed plant response rating,ragweed; [5],60
same,Ragweed plant response rating,ragweed; [6],60
same,"Plant response rating, Ragweed",ragweed; [7],80
same,"Plant response rating, Ragweed",ragweed; [8],25
same,"Plant response rating, Pigweed",pigweed; [1],25
same,"Plant response rating, Pigweed",pigweed; [2],35
same,"Plant response rating, Pigweed",pigweed; [3],55
same,"Plant response rating, Pigweed",pigweed; [4],55
same,Pigweed plant response rating,pigweed; [5],55
same,Pigweed plant response rating,pigweed; [6],75
same,"Plant response rating, Pigweed",pigweed; [7],85
same,"Plant response rating, Pigweed",pigweed; [8],40
same,"Plant response rating, Nutsedge, Yellow","nutsedge, yellow; [1]",0
same,"Plant response rating, Nutsedge, Yellow","nutsedge, yellow; [2]",0
same,"Plant response rating, Nutsedge, Yellow","nutsedge, yellow; [3]",0
same,"Plant response rating, Nutsedge, Yellow","nutsedge, yellow; [4]",0
same,"Nutsedge, Yellow plant response rating","nutsedge, yellow; [5]",0
same,"Nutsedge, Yellow plant response rating","nutsedge, yellow; [6]",25
same,"Plant response rating, Nutsedge, Yellow","nutsedge, yellow; [7]",0
same,"Plant response rating, Nutsedge, Yellow","nutsedge, yellow; [8]",0
O=C1NCC(c2cccc(Br)c2)C1C(=O)Nc1cccc(F)c1F (stereo not shown) [Compound 309],"Plant response rating, Waterhemp",waterhemp; [2],0
same,"Plant response rating, Waterhemp",waterhemp; [3],5
same,"Plant response rating, Waterhemp",waterhemp; [4],10
same,"Plant response rating, Waterhemp",waterhemp; [16],10
same,Waterhemp plant response rating,waterhemp; [6],0
same,"Plant response rating, Waterhemp",waterhemp; [17],30
same,"Plant response rating (scale of 0 to 100), Waterhemp","waterhemp; Preemergence, 250 g ai/ha",40
same,"Plant response rating, Oilseed Rape",oilseed rape; [2],35
same,"Plant response rating, Oilseed Rape",oilseed rape; [3],30
same,"Plant response rating, Oilseed Rape",oilseed rape; [4],40
same,"Plant response rating, Oilseed Rape",oilseed rape; [16],5
same,Oilseed Rape plant response rating,oilseed rape; [5],0
same,Oilseed Rape plant response rating,oilseed rape; [6],0
same,"Plant response rating, Oilseed Rape",oilseed rape; [17],50
same,"Plant response rating (scale of 0 to 100), Oilseed Rape","oilseed rape; Preemergence, 250 g ai/ha",70
same,"Plant response rating, Foxtail, Giant",giant foxtail; [9],80
same,"Plant response rating, Foxtail, Giant",giant foxtail; [10],90
same,"Plant response rating, Foxtail, Giant",giant foxtail; [11],90
same,"Foxtail, Giant plant response rating",giant foxtail; [12],90
same,"Plant response rating, Rice",rice,0
same,"Plant response rating, Blackgrass",blackgrass; [2],0
same,"Plant response rating, Blackgrass",blackgrass; [3],0
same,"Plant response rating, Blackgrass",blackgrass; [4],5
same,"Plant response rating, Blackgrass",blackgrass; [16],5
same,Blackgrass plant response rating,blackgrass; [5],0
same,Blackgrass plant response rating,blackgrass; [6],0
same,"Plant response rating, Blackgrass",blackgrass; [17],50
same,"Plant response rating (scale of 0 to 100), Blackgrass","blackgrass; Preemergence, 250 g ai/ha",45
same,"Plant response rating, Velvetleaf",velvetleaf; [2],5
same,"Plant response rating, Velvetleaf",velvetleaf; [3],5
same,"Plant response rating, Velvetleaf",velvetleaf; [4],5
same,"Plant response rating, Velvetleaf",velvetleaf; [16],15
same,Velvetleaf plant response rating,velvetleaf; [6],0
same,"Plant response rating, Velvetleaf",velvetleaf; [17],0
same,"Plant response rating (scale of 0 to 100), Velvetleaf","velvetleaf; Preemergence, 250 g ai/ha",15
same,"Plant response rating, Barnyardgrass",barnyardgrass,65
same,"Plant response rating, Ducksalad",ducksalad,100
same,"Plant response rating, Sedge, Umbrella","sedge, umbrella",0
same,"Plant response rating, Oat, Wild","oat, wild; [13]",0
same,"Plant response rating, Oat, Wild","oat, wild; [14]",0
same,"Plant response rating, Oat, Wild","oat, wild; [15]",0
same,"Plant response rating, Oat, Wild","oat, wild; 250 g ai/ha, scale 0 to 100 (0 no effect, 100 complete control)",0
same,"Plant response rating, Ragweed",ragweed; [2],0
same,"Plant response rating, Ragweed",ragweed; [3],0
same,"Plant response rating, Ragweed",ragweed; [4],35
same,"Plant response rating, Ragweed",ragweed; [16],40
same,Ragweed plant response rating,ragweed; [6],10
same,"Plant response rating, Ragweed",ragweed; [17],25
same,"Plant response rating (scale of 0 to 100), Ragweed","ragweed; Preemergence, 250 g ai/ha",65
same,"Plant response rating, Pigweed",pigweed; [2],30
same,"Plant response rating, Pigweed",pigweed; [3],50
same,"Plant response rating, Pigweed",pigweed; [4],50
same,"Plant response rating, Pigweed",pigweed; [16],60
same,Pigweed plant response rating,pigweed; [5],0
same,Pigweed plant response rating,pigweed; [6],0
same,"Plant response rating, Pigweed",pigweed; [17],0
same,"Plant response rating (scale of 0 to 100), Pigweed","pigweed; Preemergence, 250 g ai/ha",40
same,"Plant response rating, Nutsedge, Yellow","nutsedge, yellow; [2]",0
same,"Plant response rating, Nutsedge, Yellow","nutsedge, yellow; [3]",5
same,"Plant response rating, Nutsedge, Yellow","nutsedge, yellow; [4]",30
same,"Plant response rating, Nutsedge, Yellow","nutsedge, yellow; [16]",0
same,"Nutsedge, Yellow plant response rating","nutsedge, yellow; [5]",0
same,"Nutsedge, Yellow plant response rating","nutsedge, yellow; [6]",0
same,"Plant response rating, Nutsedge, Yellow","nutsedge, yellow; [17]",0
same,"Plant response rating (scale of 0 to 100), Nutsedge, Yellow","nutsedge, yellow; Preemergence, 250 g ai/ha",0
